Reference: US20230405094A1, “TREATMENT OR PREVENTION OF A DISEASE OR DISORDER” (Janssen Sciences Ireland Unlimited Company, priority 2020, published 2023)

Columns and labels:
[1] = system: non-castrate hormone-sensitive and bicalutamide-resistant human prostate cancer xenograft models; conditions: cited from earlier work
AR = AR (Homo sapiens, UniProt P10275); conditions: cited from earlier work
[2] = Plasma kinetics after single subcutaneous dose of rilpivirine nanosuspension with or without rHuPH20 (Example 1); type: in vivo, minipigs; conditions: minipig, single SC dose 900 mg/3 mL, N=3
Procedure: Six minipigs with body weights ranging from 20 to 25 kg at the start of the study were used. The minipigs were fasted overnight before dosing. Three minipigs were dosed subcutaneously in the loin with 0.19 mL of the hyaluronidase solution (10,000 U/mL) followed by 900 mg/3 mL of the drug nanosuspension at the same injection site (treatment group A). Three minipigs were dosed subcutaneously in the loin with the 900 mg/3 mL of the control drug suspension (treatment group B—control). The injection volume was 3 mL drug suspension in both treatment groups. Method—Sequential Administration • 1. Flip-off rHuPH20 solution vial flip cap and wipe with isopropyl alcohol wipe. Allow to dry. Attach an 18G transfer needle to a 1 mL syringe. • 2. Draw 0.35 mL into the syringe. • 3. Prime the syringe and set liquid level to 0.25 mL in the syringe. • 4. Remove transfer needle and attach syringe cap to 1 mL syringe. • 5. Mix rilpivirine by horizontally shaking the container 30 times over approximately 25 cm within approximately 10 s (a back and forth arm movement=2 times). Ensure well mixed/fully re-supended. • 6. Flip-off rilpivirine vial flip cap and wipe with isopropyl alcohol wipe. Allow to dry. • 7. Attach 18G transfer needle to 5 mL syringe. • 8. Invert vial and draw >3.2 mL into 5 mL syringe mL (or as much as can be removed from vial). Injecting 1-2 mL of air will facilitate draw. • 9. Detach needle and attach a syringe cap to 5 mL syringe • 10. Invert syringe. Wait 5 minutes for bubbles to settle. • 11. Attach a winged infusion set to the rHuPH20 1 mL syringe. Invert syringe and prime off air so that liquid forms at the tip of the needle. (0.19 mL of rHuPH20 should be in the line) • 12. […] Plasma samples were analysed individually by means of a validated LC-MS/MS method. Pharmacokinetic Data Analysis • The pharmacokinetic profile of the blood plasma samples was evaluated using non-compartmental pharmacokinetic analysis (using individual Cp vs time profiles). Mean plasma concentrations and PK parameters (Cmax, Tmax, t1/2 and AUC values) were measured and the results are provided in Table 1.

AR, sequence (P10275 whole entry): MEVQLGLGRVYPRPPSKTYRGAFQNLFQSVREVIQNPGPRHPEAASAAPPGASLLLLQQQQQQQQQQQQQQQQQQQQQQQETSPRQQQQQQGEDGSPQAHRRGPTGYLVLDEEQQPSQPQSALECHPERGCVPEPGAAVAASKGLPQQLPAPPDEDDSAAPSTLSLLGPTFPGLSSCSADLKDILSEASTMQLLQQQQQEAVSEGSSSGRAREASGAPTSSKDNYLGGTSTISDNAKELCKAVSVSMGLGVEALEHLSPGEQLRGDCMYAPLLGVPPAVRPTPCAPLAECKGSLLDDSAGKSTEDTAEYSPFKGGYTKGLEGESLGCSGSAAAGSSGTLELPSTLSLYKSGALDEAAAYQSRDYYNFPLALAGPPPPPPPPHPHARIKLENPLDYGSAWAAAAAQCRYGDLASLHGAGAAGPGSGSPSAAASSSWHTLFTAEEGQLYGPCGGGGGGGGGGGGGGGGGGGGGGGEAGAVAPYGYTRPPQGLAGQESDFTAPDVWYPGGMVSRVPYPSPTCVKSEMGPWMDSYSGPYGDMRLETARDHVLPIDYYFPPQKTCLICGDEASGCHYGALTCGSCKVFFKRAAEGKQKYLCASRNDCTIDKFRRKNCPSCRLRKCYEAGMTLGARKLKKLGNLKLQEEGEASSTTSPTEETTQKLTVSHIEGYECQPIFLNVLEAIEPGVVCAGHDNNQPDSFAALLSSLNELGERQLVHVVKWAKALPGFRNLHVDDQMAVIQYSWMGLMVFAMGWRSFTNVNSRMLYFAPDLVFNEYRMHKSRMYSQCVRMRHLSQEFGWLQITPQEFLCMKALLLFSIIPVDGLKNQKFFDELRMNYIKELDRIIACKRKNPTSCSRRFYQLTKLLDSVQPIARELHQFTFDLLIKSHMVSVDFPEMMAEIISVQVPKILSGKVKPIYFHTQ

## CNC(=O)c1ccc(N2C(=S)N(c3cnc(C#N)c(C(F)(F)F)c3)C(=O)C23CCC3)cc1F [Apalutamide, 4-[7-(6-cyano-5-trifluoromethylpyridin-3-yl)-8-oxo-6-thioxo-5,7-diazaspiro[3.4]oct-5-yl]-2-fluoro-N-methylbenzamide]
[1]
  tumor response: partial or complete tumor regression

## CC(O)c1cc(C(=O)N[C@@H](C)Cn2ccc(-c3ccc(C#N)c(Cl)c3)n2)n[nH]1 (stereo partly drawn) [Darolutamide, N-{(2S)-1-[3-(3-chloro-4-cyanophenyl)-1H-pyrazol-1-yl]propan-2-yl}-5-(1-hydroxyethyl)-1H-pyrazole-3-carboxamide]
AR
  AR binding affinity: high affinity

## Cc1cc(/C=C/C#N)cc(C)c1Nc1ccnc(Nc2ccc(C#N)cc2)n1 [Rilpivirine, 4-[[4-[[4-[(1E)-2-cyanoethenyl]-2,6-dimethylphenyl]amino]-2-pyrimidinyl]amino]benzonitrile]
[2]; median
  Tlast: 2160 h
[2]
  λz: 0.0009 ± 0.00009 h⁻¹
[2]; plasma
  AUC(0-inf): 27000 ± 3200 ng·h/mL
